# Experimental data taken from the NIST ThermoML archive (doi:10.1021/je900227j).
# Numbers after ± are expanded uncertainties.
# Details: 101.33 kPa, Liquid; for speed of sound: Pulse-echo method; for mass density: Pycnometric method
smiles,measurement,setting,value
CCCCBr [1-bromobutane],speed of sound,243.38 K,1195.3 ± 2.5 m/s
same,mass density,253.15 K,1326.49 ± 0.5 kg/m3
same,mass density,263.15 K,1313.8 ± 0.48 kg/m3
same,mass density,273.15 K,1300.5 ± 0.46 kg/m3
same,speed of sound,273.26 K,1091 ± 2.3 m/s
same,mass density,283.15 K,1286.37 ± 0.43 kg/m3
same,mass density,293.15 K,1272.7 ± 0.41 kg/m3
same,mass density,298.15 K,1265.66 ± 0.42 kg/m3
same,mass density,303.15 K,1258.55 ± 0.42 kg/m3
same,mass density,323.15 K,1229.53 ± 0.45 kg/m3
same,speed of sound,323.22 K,925.99 ± 1.9 m/s
same,speed of sound,343.22 K,861.16 ± 1.8 m/s
same,speed of sound,363.23 K,797.6 ± 1.7 m/s
same,speed of sound,383.31 K,735.21 ± 1.6 m/s
CCCCCCCCCCBr [1-bromodecane],mass density,253.4 K,1105.66 ± 1.6 kg/m3
same,mass density,263.3 K,1096.34 ± 1.5 kg/m3
same,mass density,273.25 K,1087.32 ± 1.5 kg/m3
same,mass density,283.2 K,1078.06 ± 1.4 kg/m3
same,mass density,293.15 K,1069.01 ± 1.4 kg/m3
same,mass density,298.15 K,1064.47 ± 1.4 kg/m3
same,mass density,323.15 K,1041.72 ± 1.4 kg/m3
same,speed of sound,323.2 K,1123.8 ± 3.2 m/s
same,mass density,343.15 K,1023.01 ± 1.4 kg/m3
same,speed of sound,353.19 K,1032.2 ± 3.1 m/s
same,mass density,363.15 K,1004.33 ± 1.4 kg/m3
same,mass density,383.15 K,985.41 ± 1.4 kg/m3
same,speed of sound,383.22 K,944.49 ± 2.9 m/s
same,speed of sound,403.23 K,888.22 ± 2.9 m/s
same,mass density,403.25 K,966.27 ± 1.4 kg/m3
same,speed of sound,423.27 K,833.21 ± 2.8 m/s
same,mass density,423.3 K,946.49 ± 1.4 kg/m3
CCCCCCCCCCCCBr [1-bromododecane],mass density,273.15 K,1056.54 ± 0.45 kg/m3
same,speed of sound,273.32 K,1323.5 ± 2.8 m/s
same,mass density,283.15 K,1048.47 ± 0.43 kg/m3
same,mass density,293.15 K,1039.81 ± 0.41 kg/m3
same,mass density,303.15 K,1031.27 ± 0.42 kg/m3
same,speed of sound,303.21 K,1224.8 ± 2.6 m/s
same,mass density,323.15 K,1013.99 ± 0.45 kg/m3
same,speed of sound,323.18 K,1161.2 ± 2.5 m/s
same,mass density,343.15 K,996.24 ± 0.48 kg/m3
same,speed of sound,353.15 K,1069.7 ± 2.4 m/s
same,mass density,363.15 K,979.02 ± 0.51 kg/m3
same,mass density,383.15 K,961.54 ± 0.55 kg/m3
same,speed of sound,383.17 K,982.95 ± 2.2 m/s
same,mass density,393.15 K,952.43 ± 0.57 kg/m3
same,speed of sound,403.19 K,926.37 ± 2.1 m/s
same,mass density,413.15 K,933.49 ± 0.6 kg/m3
same,speed of sound,423.14 K,871.74 ± 2 m/s
same,mass density,423.15 K,923.65 ± 0.62 kg/m3
CCCCCCCBr [1-bromoheptane],speed of sound,243.74 K,1308.3 ± 2.8 m/s
same,mass density,253.15 K,1180.21 ± 0.53 kg/m3
same,mass density,263.15 K,1169.57 ± 0.51 kg/m3
same,mass density,273.15 K,1159.15 ± 0.48 kg/m3
same,speed of sound,273.33 K,1207.2 ± 2.6 m/s
same,mass density,283.15 K,1148.71 ± 0.46 kg/m3
same,mass density,298.15 K,1132.91 ± 0.44 kg/m3
same,speed of sound,303.19 K,1108.7 ± 2.4 m/s
same,speed of sound,323.14 K,1045.1 ± 2.3 m/s
same,mass density,323.15 K,1105.97 ± 0.47 kg/m3
same,mass density,343.15 K,1084.54 ± 0.5 kg/m3
same,speed of sound,353.14 K,952.86 ± 2.1 m/s
same,mass density,363.15 K,1061.75 ± 0.53 kg/m3
same,mass density,383.15 K,1038.55 ± 0.56 kg/m3
same,speed of sound,383.17 K,863.47 ± 1.9 m/s
same,mass density,393.15 K,1026.63 ± 0.58 kg/m3
same,speed of sound,423.22 K,748.09 ± 1.7 m/s
CCCCCCBr [1-bromohexane],speed of sound,243.6 K,1273.8 ± 2.7 m/s
same,mass density,253.15 K,1217.95 ± 0.52 kg/m3
same,mass density,263.15 K,1206.62 ± 0.5 kg/m3
same,mass density,273.15 K,1195.28 ± 0.47 kg/m3
same,speed of sound,273.31 K,1172.8 ± 2.5 m/s
same,mass density,283.15 K,1183.82 ± 0.45 kg/m3
same,mass density,298.15 K,1166.83 ± 0.43 kg/m3
same,speed of sound,303.2 K,1073.6 ± 2.3 m/s
same,mass density,323.15 K,1137.27 ± 0.46 kg/m3
same,speed of sound,323.2 K,1009.3 ± 2.2 m/s
same,mass density,343.15 K,1113.66 ± 0.49 kg/m3
same,speed of sound,353.16 K,916.03 ± 2 m/s
same,mass density,383.15 K,1066.11 ± 0.55 kg/m3
same,speed of sound,383.19 K,826.35 ± 1.8 m/s
same,mass density,403.15 K,1040.91 ± 0.58 kg/m3
same,speed of sound,403.25 K,767.47 ± 1.7 m/s
same,speed of sound,423.23 K,709.98 ± 1.6 m/s
CCCCCCCCCBr [1-bromononane],mass density,253.15 K,1124.52 ± 1.5 kg/m3
same,speed of sound,253.46 K,1329.9 ± 3.5 m/s
same,mass density,263.2 K,1115.2 ± 1.4 kg/m3
same,mass density,273.15 K,1105.5 ± 1.4 kg/m3
same,speed of sound,273.29 K,1262.7 ± 3.3 m/s
same,mass density,283.15 K,1096.09 ± 1.4 kg/m3
same,mass density,293.15 K,1086.58 ± 1.3 kg/m3
same,mass density,298.15 K,1082.2 ± 1.3 kg/m3
same,speed of sound,303.15 K,1165.1 ± 3.2 m/s
same,speed of sound,323.14 K,1101.1 ± 3.1 m/s
same,mass density,323.15 K,1058.34 ± 1.3 kg/m3
same,mass density,343.15 K,1038.92 ± 1.3 kg/m3
same,speed of sound,353.1 K,1009.9 ± 3 m/s
same,mass density,363.15 K,1019.42 ± 1.3 kg/m3
same,speed of sound,383.05 K,921.46 ± 2.8 m/s
same,mass density,383.15 K,999.36 ± 1.3 kg/m3
same,mass density,393.15 K,989.17 ± 1.3 kg/m3
same,speed of sound,402.98 K,864.42 ± 2.8 m/s
same,mass density,413.15 K,968.48 ± 1.3 kg/m3
same,speed of sound,422.72 K,808.79 ± 2.7 m/s
CCCCCCCCBr [1-bromooctane],speed of sound,243.61 K,1336.3 ± 2.9 m/s
same,mass density,253.15 K,1151.11 ± 0.55 kg/m3
same,mass density,263.15 K,1140.86 ± 0.52 kg/m3
same,mass density,273.15 K,1131.22 ± 0.5 kg/m3
same,speed of sound,273.28 K,1235.4 ± 2.7 m/s
same,mass density,283.15 K,1121.21 ± 0.47 kg/m3
same,mass density,293.15 K,1111.01 ± 0.45 kg/m3
same,mass density,303.15 K,1100.89 ± 0.46 kg/m3
same,speed of sound,303.16 K,1137.2 ± 2.5 m/s
same,speed of sound,323.02 K,1073.8 ± 2.4 m/s
same,mass density,323.15 K,1080.6 ± 0.49 kg/m3
same,mass density,343.15 K,1060.45 ± 0.51 kg/m3
same,speed of sound,352.91 K,981.92 ± 2.2 m/s
same,mass density,363.15 K,1039.47 ± 0.55 kg/m3
same,speed of sound,382.88 K,892.87 ± 2 m/s
same,mass density,383.15 K,1018.75 ± 0.58 kg/m3
same,mass density,393.15 K,1008.38 ± 0.6 kg/m3
same,speed of sound,402.55 K,835.51 ± 1.9 m/s
same,speed of sound,423.04 K,778.72 ± 1.8 m/s
CCCCCBr [1-bromopentane],speed of sound,243.73 K,1240 ± 2.8 m/s
same,mass density,253.15 K,1260.65 ± 0.79 kg/m3
same,mass density,263.15 K,1249.88 ± 0.76 kg/m3
same,speed of sound,273.32 K,1137.5 ± 2.6 m/s
same,mass density,283.15 K,1226.85 ± 0.69 kg/m3
same,mass density,293.15 K,1214.88 ± 0.66 kg/m3
same,mass density,303.15 K,1202.6 ± 0.67 kg/m3
same,speed of sound,303.22 K,1037.1 ± 2.4 m/s
same,mass density,323.15 K,1177.13 ± 0.69 kg/m3
same,speed of sound,323.17 K,972.37 ± 2.3 m/s
same,mass density,343.15 K,1150.97 ± 0.72 kg/m3
same,speed of sound,353.18 K,877.57 ± 2.1 m/s
same,mass density,363.15 K,1124.69 ± 0.74 kg/m3
same,mass density,383.15 K,1097.39 ± 0.76 kg/m3
same,speed of sound,383.23 K,785.49 ± 2 m/s
same,mass density,393.15 K,1083.35 ± 0.78 kg/m3
same,speed of sound,403.28 K,725.54 ± 1.9 m/s
same,speed of sound,423.48 K,666.58 ± 1.8 m/s
CCCBr [1-bromopropane],mass density,243.15 K,1431.07 ± 0.54 kg/m3
same,speed of sound,243.76 K,1144.8 ± 2.4 m/s
same,mass density,253.15 K,1415.43 ± 0.51 kg/m3
same,mass density,263.15 K,1400.28 ± 0.49 kg/m3
same,speed of sound,263.38 K,1075 ± 2.2 m/s
same,mass density,273.15 K,1385.33 ± 0.47 kg/m3
same,speed of sound,273.31 K,1040.1 ± 2.1 m/s
same,mass density,283.15 K,1369.4 ± 0.45 kg/m3
same,speed of sound,283.26 K,1005.5 ± 2.1 m/s
same,mass density,293.15 K,1352.89 ± 0.43 kg/m3
same,speed of sound,293.22 K,971.22 ± 2 m/s
same,mass density,298.15 K,1344.48 ± 0.43 kg/m3
same,speed of sound,298.21 K,954.05 ± 2 m/s
same,speed of sound,323.21 K,870.16 ± 1.8 m/s
same,speed of sound,343.21 K,804.19 ± 1.7 m/s
same,speed of sound,363.23 K,739.38 ± 1.5 m/s
same,speed of sound,383.47 K,674.94 ± 1.4 m/s
CCCCCCCCCCCBr [1-bromoundecane],mass density,273.15 K,1067.26 ± 1.3 kg/m3
same,speed of sound,273.42 K,1307 ± 3.4 m/s
same,mass density,283.2 K,1058.34 ± 1.3 kg/m3
same,mass density,293.2 K,1049.49 ± 1.2 kg/m3
same,mass density,298.15 K,1045.03 ± 1.2 kg/m3
same,speed of sound,303.22 K,1209 ± 3.3 m/s
same,speed of sound,323.19 K,1145.6 ± 3.2 m/s
same,mass density,323.2 K,1023.21 ± 1.2 kg/m3
same,mass density,343.2 K,1005.75 ± 1.2 kg/m3
same,speed of sound,353.14 K,1054.4 ± 3 m/s
same,mass density,363.2 K,987.93 ± 1.3 kg/m3
same,speed of sound,383.14 K,966.59 ± 2.9 m/s
same,mass density,383.2 K,969.56 ± 1.3 kg/m3
same,speed of sound,403.13 K,909.71 ± 2.8 m/s
same,mass density,403.25 K,951.27 ± 1.3 kg/m3
same,speed of sound,423.13 K,854.45 ± 2.8 m/s
